From US9005575B2, “Arg-Gly-Asp-conjugated alpha-melanocyte stimulating hormone hybrid peptide for use in diagnosing and treating melanoma, including metastatic melanoma and methods related to same” (STC.UNM, priority 2009, dated 2015) come the findings set out here.

Data set [1] deals with B16/F1 murine melanoma cells. The data set is described as follows: Specificity of cellular uptake (peptide blockade). It is filed as cell-based. As to conditions: rather than αvβ3 integrin-mediated. The protocol:
The specificity of cell binding was determined by incubating ^99mTc-RGD-Lys-(Arg^11)CCMSH with or without non-radioactive peptides. After being washed once with binding media, B16/F1 cells in 24-well cell culture plates were incubated with approximately 200,000 cpm of HPLC purified ^99mTc-RGD-Lys-(Arg^11)CCMSH at 25° C. for 120 min (n=4) in the presence of 0.1 μM of RGD-Lys-(Arg^11)CCMSH, NDP-MSH, (Arg^11)CCMSH or RGD in 0.5 ml of binding media, respectively. The reaction media were aspirated after the incubation. The cells were rinsed twice with 0.5 ml of ice-cold pH 7.4, 0.2% BSA/0.01 M PBS and lysed in 0.5 ml of 1 N NaOH for 5 min. The activities associated with cells were measured in a gamma counter. Statistical analysis was performed using the Student's t-test for unpaired data.
The specificity of cellular uptake was determined by incubating ^99mTc-RGD-Arg-(Arg^11)CCMSH with or without non-radioactive peptides. After being washed once with binding medium, B16/F1 cells in 24-well cell culture plates were incubated with approximately 200,000 cpm of HPLC purified ^99mTc-RGD-Arg-(Arg^11)CCMSH at 25° C. for 120 min (n=3) in the presence of 0.1 μM of RGD-Arg-(Arg^11)CCMSH, (Arg^11)CCMSH, RGD or no peptide blockade in 0.5 mL of binding medium, respectively. The reaction medium was aspirated after the incubation. The cells were rinsed twice with 0.5 mL of ice-cold pH 7.4, 0.2% BSA/0.01 M PBS and lysed in 0.5 mL of 1 N NaOH for 5 min. The activities associated with cells were measured in a gamma counter.

For the next data set, the system named is B16/F1 melanoma. Description: Biodistribution in B16/F1 melanoma-bearing C57 mice. It is filed as in vivo. As to conditions: for Tumor uptake blocked by NDP-MSH: 6.1 nmol of NDP-MSH; for Tumor uptake decreased (blocked) by RGD co-injection: 3.5 μg (6.1 nmol) of RGD; for Tumor uptake with NDP-MSH co-injection as % of the tumor uptake without: 10 μg (6.1 nmol) NDP-MSH, 2 h after dose administration. On the procedure: All the animal studies were conducted in compliance with Institutional Animal Care and Use Committee approval. The pharmacokinetics of ^99mTc-RGD-Lys-(Arg^11)CCMSH was determined in B16/F1 melanoma-bearing C57 female mice (Harlan, Indianapolis, Ind.). C57 mice were subcutaneously inoculated on the right flank with 1×10^6 B16/F1 cells. The weight of tumors reached approximately 0.2 g 10 days post cell inoculation. Each melanoma-bearing mouse was injected with 0.037 MBq of ^99mTc-RGD-Lys-(Arg^11)CCMSH via the tail vein. Groups of 5 mice were sacrificed at 0.5, 2, 4 and 24 h post-injection, and tumors and organs of interest were harvested, weighed and counted. Blood values were taken as 6.5% of the whole-body weight. The MC1 receptor specificity of the tumor uptake was determined at 2 h post-injection by co-injecting ^99mTc-RGD-Lys-(Arg^11)CCMSH with 10 μg (6.1 nmol) of unlabeled NDP-MSH, a linear α-MSH peptide analogue with picomolar affinity for the MC1 receptors present on murine melanoma cells. The co-injection of 3.5 μg (6.1 nmol) of RGD peptide was performed to determine the αvβ3 integrin specificity of the tumor uptake 2 h post-injection. Statistical analysis was performed using the Student's t-test for unpaired data.
All the animal studies were conducted in compliance with Institutional Animal Care and Use Committee approval. The pharmacokinetics of ^99mTc-RGD-Arg-(Arg^11)CCMSH was determined in B16/F1 melanoma-bearing C57 female mice (Harlan, Indianapolis, Ind.). C57 mice were subcutaneously inoculated on the right flank with 1×10^6 B16/F1 cells. The weight of tumors reached approximately 0.2 g 10 days post cell inoculation. Each melanoma-bearing mouse was injected with 0.037 MBq of ^99mTc-RGD-Arg-(Arg^11)CCMSH via the tail vein. Groups of 5 mice were sacrificed at 0.5, 2, 4 and 24 h post-injection, and tumors and organs of interest were harvested, weighed and counted. Blood values were taken as 6.5% of the whole-body weight. The MC1 receptor specificity of the tumor uptake was determined at 2 h post-injection by co-injecting ^99mTc-RGD-Arg-(Arg^11)CCMSH with 10 μg (6.1 nmol) of unlabeled NDP-MSH. The co-injection of 3.5 μg (6.1 nmol) of RGD peptide was performed to determine the αvβ3 integrin specificity of the tumor uptake at 2 h post-injection.

Molecules are shown by their SMILES. Positions of bridges follow the written chain, without caps; N, C: chain ends. Non-standard residues stand in square brackets, D forms with d. Residues, ends and D or L forms follow the SMILES beside them.

Take `CC(C)[C@H](NC(=O)[C@@H]1CCCN1C(=O)[C@H](CCCNC(=N)N)NC(=O)[C@H](CS)NC(=O)[C@H](Cc1c[nH]c2ccccc12)NC(=O)[C@H](CCCNC(=N)N)NC(=O)[C@@H](Cc1ccccc1)NC(=O)[C@H](Cc1c[nH]cn1)NC(=O)[C@H](CCC(=O)O)NC(=O)[C@H](CS)NC(=O)[C@H](CS)NC(=O)[C@H](CCCCN)NC(=O)[C@@H]1CC(=O)N[C@@H](CCCNC(=N)N)C(=O)NCC(=O)N[C@@H](CC(=O)O)C(=O)N[C@H](Cc2ccc(O)cc2)C(=O)N1)C(N)=O` [^99mTc-RGD-Lys-(Arg^11)CCMSH, metal not drawn] (RGD[dY]DKCCEH[dF]RWCRPV-NH2; lactam N-5): in data set [1], the “Mechanism of cellular uptake” value was “MC1 receptor-mediated”. In addition, in the data set with B16/F1 melanoma (2 h post-injection), the “Tumor uptake blocked by NDP-MSH” value worked out at 87.8% and the “Tumor uptake decreased (blocked) by RGD co-injection” value is 29.2%. The “Tumor uptake with NDP-MSH co-injection as % of the tumor uptake without” value in the data set with B16/F1 melanoma was 12.2%. Also, in the data set on B16/F1 melanoma (4 h post-injection), the “Kidneys, Percentage Injected Dose/gram” value came to 69.29 ± 14.34 % ID/g; the “Renal uptake value, times that of ^99mTc-(Arg^11)CCMSH” value was determined as 12.5 times; the “Tumor uptake value as % of the tumor uptake value 2 h post-injection” value (shortened to “Tumor uptake value as %”) was found to be 85%; the “Tumor uptake value, times that of ^99mTc-(Arg^11)CCMSH” value worked out at 1.1 times. Besides, in the data set with B16/F1 melanoma (24 h post-injection), the “Tumor uptake value as %” value was determined as 51% and the “Tumor uptake value, times that of ^99mTc-(Arg^11)CCMSH” value amounted to 2.3 times. Besides, the “Renal uptake value, times that of ^188Re-dLys-(Arg^11)CCMSH” value in the data set with B16/F1 melanoma (mouse, in vivo) came to 1.2 times.
Regarding `CC(C)[C@H](NC(=O)[C@@H]1CCCN1C(=O)[C@H](CCCNC(=N)N)NC(=O)[C@H](CS)NC(=O)[C@H](Cc1c[nH]c2ccccc12)NC(=O)[C@H](CCCNC(=N)N)NC(=O)[C@@H](Cc1ccccc1)NC(=O)[C@H](Cc1c[nH]cn1)NC(=O)[C@H](CCC(=O)O)NC(=O)[C@H](CS)NC(=O)[C@H](CS)NC(=O)[C@H](CCCNC(=N)N)NC(=O)[C@@H]1CC(=O)N[C@@H](CCCNC(=N)N)C(=O)NCC(=O)N[C@@H](CC(=O)O)C(=O)N[C@H](Cc2ccc(O)cc2)C(=O)N1)C(N)=O` [^99mTc-RGD-Arg-(Arg^11)CCMSH, metal not drawn] (RGD[dY]DRCCEH[dF]RWCRPV-NH2; lactam N-5), the “Mechanism of cellular uptake” value in data set [1] is listed as “MC1 receptor-mediated”. Moreover, in the data set with B16/F1 melanoma (2 h post-injection), the “Tumor uptake blocked by NDP-MSH” value is recorded as 90.9%; the “Tumor uptake decreased (blocked) by RGD co-injection” value was 21.2%; the “Renal uptake value as % of that of ^99mTc-RGD-Lys-(Arg^11)CCMSH” value (shortened to “Renal uptake value as %”) was 64.08%; the “Tumor uptake value, times that of ^99mTc-RGD-Lys-(Arg^11)CCMSH” value is 1.44 times. Besides, in the data set on B16/F1 melanoma, the “Tumor uptake with NDP-MSH co-injection as % of the tumor uptake without” value is 9.15%. For the same compound, the “Renal uptake values as % of those of ^99mTc-RGD-Lys-(Arg^11)CCMSH” value in the data set on B16/F1 melanoma (0.5, 2, 4 and 24 h post-injection) was 40.14-64.08%. Besides, in the data set with B16/F1 melanoma (0.5 h post-injection), the “Renal uptake value as %” value was found to be 53.65% and the “Tumor uptake value, times that of ^99mTc-RGD-Lys-(Arg^11)CCMSH” value was determined as 1.27 times. Moreover, in the data set with B16/F1 melanoma (4 h post-injection), the “Renal uptake value as %” value was 52.89%; the “Tumor uptake value as %” value was 75%; the “Tumor uptake value, times that of ^99mTc-RGD-Lys-(Arg^11)CCMSH” value was found to be 1.28 times. For the same compound, in the data set on B16/F1 melanoma (24 h post-injection), the “Renal uptake value as %” value is reported as 40.14% and the “Tumor/kidney uptake ratio, times that of ^99mTc-RGD-Lys-(Arg^11)CCMSH” value is given as 2.21 times.
